Assay results reported in US20080261291A1 (priority 2004, published 2008).

Test system: hairy scalp of men with premature alopecia
Details: 0.5% in excipient, 0.5 to 1 ml on the head scalp, one week
Method: It is wanted to evaluate the genin of Calocarpum, (Chrysophyllum or Lucuma) as obtained of the example 6 according to this invention, as capillary rubefacient agent for which six affected gentlemen of premature alopecia are tried, to witch are requested to subject themselves to one weeks of test, which consists on being applied from 0.5 to 1 ml of the diluted products in test in the affected area of the head scalp in the clean skin. The two men of the group #1, receives the mixture of genin of Calocarpum, in a preparation consisting on the product as obtained of the example 6, to 0.5% in an excipient. The excipient composition for 100 g is: water 20 g, propyleneglycol 25 g, sunflower oil 54.5 g. The two men of the group #2, receives the same composition of the previous excipient and resorcinol to 0.5%. The two men of the group #3, receives the before mentioned excipient alone. The following questionnaire is registered and the pertinent observations of the test are made.
Age; sex; since when they present the alopecia; duration of the applied treatment; 1.—Was the treatment irritating: a) it was not irritating, b) light, c) moderate, d) high, e) severe. 2.—Irritation type: a) hyperaemia (heat), b) inflammation, c) vesicatión (it produces blisters) 3.—keratolytic (desquamation production): a) without effect, b) light, c) moderate, d) extensive. […]

## Oc1cccc(O)c1 [resorcinol]
  keratolysis (desquamation production): moderate keratolysis
